Counter-ions that a name gives are not always drawn. Like-named read-outs stand apart in the source and are kept apart here.

Experiment [1] concerns MCF-7. Particulars: cited from earlier work.
For experiment [2], the system named is MDA-MB-231. Particulars: cited from earlier work.
Experiment [3] deals with MCF-7. Briefly: [3H]-thymidine incorporation assay. Format: cell-based. The settings on record: Homo sapiens, MCF7; MCF-7, 24 h of treatment. How it is done:
(§1) Another method of assessing the cytotoxic effects of tested compounds, [^3H]-thymidine incorporation assay, was applied. This method provided the capability to analyze the antiproliferative activity of novel structures on MCF-7 and MDA-MB-231 through their ability to incorporate thymidine into the cells. The acquired results further confirmed the potent activity of the 14b compound as the most prominent structure among the novel compounds (Table 2). The test was carried out in triplicate at concentrations of 5, 15, and 30 μM for the MDA-MB-231 cell line and 1, 5, and 10 μM for the MCF-7 cell line.
(§2) Following the selection of cell lines for further study, the effects of all compounds on cell proliferation were evaluated on MCF-7 and MDA-MB-231 cell lines. Cells were seeded in 24-well plates and cultured as described above. Cells were treated with the compounds at concentrations 1, 5, and 10 μM, and 5, 15, and 30 μM for MCF-7 and MDA-MB-231 cell lines, respectively, for 24 h. Subsequently, 0.5 μCi [^3H]-thymidine was added for 4 h at 37 °C. Then, plates with cells were placed on the ice, the liquid was aspirated, and cells were washed twice with 1mL of 0.05 M Tris-HCl buffer comprising 0.11 M NaCl and precipitated by adding 1 mL per well of 5% trichloroacetic. After precipitation, the cells were dissolved with 1 mL of 0.1 M NaOH with 1% SDS (Sigma-Aldrich, St. Louis, MO, USA) at room temperature (RT). The cell lysates were transferred into scintillation vials containing 2 mL of scintillation fluid (Ultima Gold™ XR, PerkinElmer, MA, USA), and cell-associated radioactivity was measured using a Scintillation Counter 1900 TR, TRI-CARB (Packard, Perkin Elmer, Inc., San Jose, CA, USA). The [^3H]-thymidine uptake was expressed as a percentage of the control value.
(Uptake of a labelled nucleoside into DNA is a usual measure of proliferation.)

For experiment [4], the system named is MDA-MB-231. Description: [3H]-thymidine incorporation assay. Format: cell-based. Particulars: Homo sapiens; MDA-MB-231, 24 h of treatment. How it is done: as §1, §2
Experiment [5] has as its system reactive oxygen species in MDA-MB-231 cells. Description: H2DCFDA and DAPI double staining. Particulars: MDA-MB-231, 5 and 10 μM, one hour. Format: cell-based, human. How it is done: (§3) The double staining method was applied to analyze novel compounds’ effects on the generation of reactive oxygen species. The first dye, H2DCFDA, after conversion to DCF, serves as an indicator of oxidative stress (green fluorescence), while the second one, known as DAPI, was applied to showcase nuclear genetic material of MCF-7 and MDA-MB-231 breast cancer cells (blue fluorescence). The concentrations of compounds were 1 and 5 μM for the MCF-7 cell line and 5 and 10 μM for the MDA-MB-231 cell line. The incubation time after treatment was one hour in both cell lines.
(§4) The influences of 2b, 12b, 14b, and doxorubicin (1 and 5 µM and 5 and 10 µM for MCF-7 and MDA-MB-231 cell lines, respectively) on the generation of reactive oxygen species (ROS) were analyzed. Cells were seeded in 6-well culture plates at 1 × 10^5 cells per well in 1 mL of medium and then treated with compounds for 1 h and then washed with PBS. Double staining was conducted with 20 µM 2′,7′-dichlorodihydrofluorescein diacetate (H2DCFDA) reagent (Thermo Fisher Scientific, Eugene, OR, USA), which is colorless, and is cleaved by intracellular esterases and oxidized to the highly fluorescent 2′,7′-dichlorofluorescein (DCF), and 10 µg/mL of the fluorescent dye 4′,6-diamidino-2-phenylindole (DAPI) (Sigma-Aldrich, St. Louis, MO, USA), which visualizes the nuclear DNA of cells. A Nikon ECLIPSE Ti fluorescence microscope (Nikon, Tokyo, Japan) was used to obtain results which were analyzed using ImageJ software 1.54k (Bethesda, MD, USA). The fluorescence intensity of the DCF reagent was evaluated relative to the control. The number of analyzed cells was above 100.

The test system of experiment [6] is reactive oxygen species in MCF-7 cells. Briefly: H2DCFDA and DAPI double staining. The settings on record: MCF-7, 1 and 5 μM, one hour. Format: cell-based, human. How it is done: as §3, §4
The test system of a further experiment is RPMI 8866. Description: MTT assay. Format: cell-based. Particulars: Homo sapiens; RPMI 8866, 24 h of treatment. How it is done: (§5) The NCI-60 screening protocol utilizes the sulforhodamine B (SRB) assay following 48 h of compound exposure. […] The MTT assay was performed on eleven cancer cell lines: human breast cancer (MDA-MB-231, MCF-7, HCC 1954), human gastric cancer (AGS), human colorectal adenocarcinoma (HT-29, DLD-1, HCT 116), human neuroblastoma (SH SY5Y), and human leukemia (JURKAT, RMPI 8866, K-562) cell lines. The study was conducted in triplicate at the following seven concentrations: 0.62, 1.25, 2.5, 5, 10, 20, and 40 μM.
(§6) The selected cell lines were seeded into 96-well plates and cultured in accordance with the previously described methodology. Then, the cells were treated with all tested compounds and DOX at concentrations of 0.625, 1.25, 2.5, 5.0, 10.0, 20.0, and 40.0 μM for 24 h. A solution of 3-(4,5-dimethyl-2-thiazolyl)-2,5-diphenyl-2H-tetrazolium bromide (Sigma-Aldrich, St. Louis, MO, USA) in phosphate-buffered saline without calcium and magnesium (Corning, Kennebunk, ME, USA) at a concentration of 5 mg/mL was used to carry out MTT assay. After incubation, 20 μL of the prepared MTT solution was added, and then the cells were incubated at 37 °C for two hours. Afterwards, the cells were lysed using 100 μL of lysing buffer (comprising 25 mM HCl, 2% acetic acid, 3% DMF, and 5% SDS, with a pH of 4.7). The absorbance was determined at a wavelength of 570 nm using an Absorbance 96 microplate reader (Byonoy GmbH, Hamburg, Germany).

Experiment [7] relates to MCF-7. Briefly: MTT assay. Format: cell-based. Particulars: Homo sapiens, MCF7; MCF-7, 24 h of treatment. The procedure:
as §5, §6
(Tetrazolium dyes change colour on reduction, which living cells bring about.)

The next experiment relates to HT-29. Description: MTT assay. Format: cell-based. The settings on record: Homo sapiens; HT-29, 24 h of treatment. The procedure: as §5, §6
For the next experiment, the system named is K562. Description: MTT assay. Format: cell-based. The settings on record: Homo sapiens; K562, 24 h of treatment. The procedure: as §5, §6
In the next experiment the test system is SH SY5Y. Description: MTT assay. Format: cell-based. Particulars: Homo sapiens, 24 h of treatment. The procedure:
as §5, §6

The test system of another experiment is Jurkat. Briefly: MTT assay. Format: cell-based. Particulars: Homo sapiens, 24 h of treatment. How it is done: as §5, §6
The subject of another experiment is DLD-1. Briefly: MTT assay. Format: cell-based. Particulars: Homo sapiens; DLD-1, 24 h of treatment. The procedure: as §5, §6
In another experiment the test system is HCC-1954. Briefly: MTT assay. Format: cell-based. The settings on record: Homo sapiens, HCC1954; HCC-1954, 24 h of treatment. The procedure: as §5, §6
The test system of another experiment is HCT-116. Briefly: MTT assay. Particulars: Homo sapiens; HCT-116, 24 h of treatment. Format: cell-based. The procedure:
as §5, §6

Experiment [8] has as its system MDA-MB-231. Briefly: MTT assay. Format: cell-based. Particulars: Homo sapiens; MDA-MB-231, 24 h of treatment. How it is done: as §5, §6
In another experiment the test system is AGS. Description: MTT assay. The settings on record: Homo sapiens, 24 h of treatment. Format: cell-based. The procedure:
as §5, §6

In the case of `N.N.[Cl][Pt][Cl]` [cisplatin], the IC50 is ~80 µM with MCF-7 [1] (MCF-7 ref 39, read-out: concentration required to inhibit more than 50%) and ~80 µM in the experiment on MDA-MB-231 [2] (MDA-MB-231 ref 39, read-out: concentration required to inhibit more than 50%).

For `CC(C)C(C(=O)O)N1C(=O)/C(=C/C(Cl)=C/c2ccc([N+](=O)[O-])cc2)SC1=S` (stereo not shown) [substructure B, 2-{5-[(Z,2Z)-2-Chloro-3-(4-nitrophenyl)-2-propenylidene]-4-oxo-2-thioxothiazolidin-3-yl}-3-methylbutanoic Acid], the IC50 with MCF-7 [1] (MCF-7 ref 4, read-out: IC50) was 5.02 µM; in the experiment on MDA-MB-231 [2] (MDA-MB-231 ref 4, read-out: IC50), 15.2 µM.

Take `COc1cccc2c1C(=O)c1c(O)c3c(c(O)c1C2=O)C[C@@](O)(C(=O)CO)C[C@@H]3O[C@H]1C[C@H](N)[C@H](O)[C@H](C)O1` [DOX, Doxorubicin hydrochloride, reference compound]: the IC50 with MCF-7 [3] worked out at 1780 nM; with MDA-MB-231 [4], 360 nM; with RPMI 8866 it was 380 nM; in the experiment on MCF-7 [7] it was 730 nM; with HT-29, 730 nM; in the experiment on K562 it was 430 nM. Moreover, the IC50 amounted to 39.9 µM with SH SY5Y; 720 nM in the experiment on Jurkat; 2830 nM in the experiment with DLD-1; 3.14 µM with HCC-1954; 16.8 µM in the experiment on HCT-116; 7.53 µM in the experiment on MDA-MB-231 [8]. This molecule also registered an IC50 in the experiment with AGS of 1090 nM. In addition, the “generation of reactive oxygen species” value in [5] and in [6] was “fewer effects on reactive oxygen species generation” each time.

(Values after article PMC12655351, “Synthesis and Anticancer Activity Evaluation of New 5-((5-Nitrofuran-2-yl)allylidene)-2-thioxo-4-thiazolidinones” (Pharmaceuticals, 2025).)
